Experimental findings from patent publication US10961215B2, “N-aryl and N-heteroaryl piperidine derivatives as liver X receptor beta agonists, compositions, and their use” (Merck Sharp & Dohme Corp., priority 2016, dated 2021) are described below.

The target in assay [1] is T1, GST tagged LXRbeta LBD (ligand binding domain) (Homo sapiens, UniProt P55055).
T1 construct: purchased Invitrogen pv4658.pps
T1 sequence (P55055 222-460 limits assumed): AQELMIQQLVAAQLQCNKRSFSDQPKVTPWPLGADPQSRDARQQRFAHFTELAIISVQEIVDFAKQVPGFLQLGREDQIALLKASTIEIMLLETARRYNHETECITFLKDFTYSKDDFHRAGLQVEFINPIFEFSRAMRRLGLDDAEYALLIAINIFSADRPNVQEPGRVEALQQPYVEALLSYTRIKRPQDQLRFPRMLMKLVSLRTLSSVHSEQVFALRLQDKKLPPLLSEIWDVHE
The experiment in a line: LanthaScreen TR-FRET Liver X Receptor Coactivator Assay, LXR beta-LBD (co-activator recruitment; IP and % Emax relative to T0901317). The format is biochemical. To be noted: for EC50: Inflection Point of co-activator recruitment, LXR beta-LBD, TR-FRET; for Emax: efficacy at max dose in relation to reference T0901317, LXR beta-LBD, read-out: LXR beta actiivty at max dose (%). A digest of the protocol: (§1)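 Agonist-induced recruitment of a fluorescein-tagged coactivator peptide to the LBD is detected via terbium anti-GST TR-FRET.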
(In general: In TR-FRET formats the signal depends on donor and acceptor labels being close together.)

For assay [2], the target named is T2, GST tagged LXRalpha LBD (ligand binding domain) (Homo sapiens, UniProt Q13133).
T2 construct: purchased Invitrogen pv4655
T2 sequence (Q13133 209-447 limits assumed): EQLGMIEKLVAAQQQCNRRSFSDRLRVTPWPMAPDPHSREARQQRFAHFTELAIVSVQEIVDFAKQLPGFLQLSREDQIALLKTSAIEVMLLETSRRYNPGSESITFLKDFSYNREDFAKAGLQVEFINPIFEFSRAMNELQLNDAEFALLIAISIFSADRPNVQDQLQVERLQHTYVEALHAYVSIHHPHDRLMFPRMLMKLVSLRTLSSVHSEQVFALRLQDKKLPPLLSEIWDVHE
The experiment in a line: LanthaScreen TR-FRET Liver X Receptor Coactivator Assay, LXR alpha-LBD (co-activator recruitment; IP and % Emax relative to T0901317). To be noted: for LXR alpha IP (nM) / EC50: Inflection Point of co-activator recruitment, LXR alpha-LBD, TR-FRET; for Emax: efficacy at max dose in relation to reference T0901317, LXR alpha-LBD, read-out: LXR alpha actiivty at max dose (%). The class given is biochemical. A digest of the protocol:
as §1

Regarding `CCc1cccc([C@](O)(C(=O)N(C)CCCC2CCN(c3ccc(C(=O)N(C)C)c(Cl)n3)CC2)C(F)(F)F)c1` [Example 1-31, (S)-2-chloro-6-(4-(3-(2-(3-ethylphenyl)-3,3,3-trifluoro-2-hydroxy-N-methylpropanamido)propyl)piperidin-1-yl)-N,N-dimethylnicotinamide], in assay [1], the EC50 (in general, the concentration that produces a half-maximal response) turned out to be 163 nM and the Emax turned out to be 56%. Further, in assay [2], the “LXR alpha IP (nM)” value is “No IP” and the Emax was 0%.
Turning to `CC(C)Oc1cccc(C(O)(C(=O)N(C)CCCC2CCN(c3ccc(C(=O)N(C)C)c(Cl)n3)CC2)C(F)(F)F)c1` (stereo not drawn) [Example 1-32, 2-chloro-N,N-dimethyl-6-(4-(3-(3,3,3-trifluoro-2-hydroxy-2-(3-isopropoxyphenyl)-N-methylpropanamido)propyl)piperidin-1-yl)nicotinamide], in assay [1], the EC50 was determined as 95 nM and the Emax came out at 48%. For the same compound, in assay [2], the “LXR alpha IP (nM)” value is reported as “No IP” and the Emax came to 0%.
Regarding `CN(C)C(=O)c1ccc(N2CCC(CCCN(C)C(=O)[C@](O)(c3cccc(C4CC4)c3)C(F)(F)F)CC2)nc1Cl` [Example 1-33, (R)-2-chloro-6-(4-(3-(2-(3-cyclopropylphenyl)-3,3,3-trifluoro-2-hydroxy-N-methylpropanamido)propyl)piperidin-1-yl)-N,N-dimethylnicotinamide], in assay [1], the response was half-maximal at 17 nM (EC50) and the Emax is 70%. Moreover, in assay [2], the “LXR alpha IP (nM)” value is on record as “No IP” and the Emax was 0%.
Regarding `CN(C)C(=O)c1ccc(N2CCC(CCCN(C)C(=O)[C@@](O)(c3cccc(C4CC4)c3)C(F)(F)F)CC2)nc1Cl` [Example 1-34, (S)-2-chloro-6-(4-(3-(2-(3-cyclopropylphenyl)-3,3,3-trifluoro-2-hdyroxy-N-methylpropanamido)propyl)piperidin-1-yl)-N,N-dimethylnicotinamide], in assay [1], it took 261 nM to reach a half-maximal effect (EC50) and the Emax was found to be 49%. In assay [2], the “LXR alpha IP (nM)” value is given as “No IP” and the Emax is 16%.
Take `CN(C)C(=O)c1ccc(N2CCC(CCCN(C)C(=O)[C@@](O)(c3cccc(OC4CC4)c3)C(F)(F)F)CC2)nc1Cl` [Example 1-35, (S)-2-chloro-6-(4-(3-(2-(3-cyclopropoxyphenyl)-3,3,3-trifluoro-2-hydroxy-N-methylpropanamido)propyl)piperidin-1-yl)-N,N-dimethylnicotinamide]: in assay [1], a half-maximal response (EC50) required 437 nM and the Emax was determined as 46%. Moreover, in assay [2], the “LXR alpha IP (nM)” value is given as “No IP” and the Emax amounted to 14%.
`CCOc1cccc([C@@](O)(C(=O)N(C)CCCC2CCN(c3ccc(C(=O)N(C)C)c(Cl)n3)CC2)C(F)(F)F)c1` [Example 1-36, (R)-2-chloro-6-(4-(3-(2-(3-ethoxyphenyl)-3,3,3-trifluoro-2-hydroxy-N-methylpropanamido)propyl)piperidin-1-yl)-N,N-dimethylnicotinamide]: in assay [1], a half-maximal response (EC50) required 78 nM and the Emax worked out at 63%. In addition, in assay [2], the “LXR alpha IP (nM)” value is on record as “No IP” and the Emax turned out to be 0%.
For the compound `CN(C)C(=O)c1ccc(N2CCC(CCCN(C)C(=O)[C@](O)(c3cc(Cl)cc(Cl)c3)C(F)(F)F)CC2)nc1Cl` [Example 1-37, (R)-2-chloro-6-(4-(3-(2-(3,5-dichlorophenyl)-3,3,3-trifluoro-2-hydroxy-N-methylpropanamido)propyl)piperidin-1-yl)-N,N-dimethylnicotinamide], in assay [1], the EC50 amounted to 35 nM and the Emax was 44%. In addition, in assay [2], the “LXR alpha IP (nM)” value is listed as “No IP” and the Emax is 0%.
`CN(C)C(=O)c1ccc(N2CCC(CCCN(C)C(=O)[C@@]3(c4ccccc4)CCCO3)CC2)nc1Cl` [Example 1-38, (S)-2-chloro-N,N-dimethyl-6-(4-(3-(N-methyl-2-phenyltetrahydrofuran-2-carboxamido)propyl)piperidin-1-yl)nicotinamide]: the concentration for a half-maximal effect (EC50) in assay [1] was found to be 156 nM; in assay [2], 1920 nM. Also, the Emax was determined as 78% in assay [1] and 18% in assay [2].
As to `CN(C)C(=O)c1ccc(N2CCC(CCCN(C)C(=O)[C@@](O)(c3cccc(OC(F)(F)F)c3)C(F)(F)F)CC2)nc1Cl` [Example 1-39, (S)-2-chloro-N,N-dimethyl-6-(4-(3-(3,3,3-trifluoro-2-hydroxy-N-methyl-2-(3-(trifluoromethoxy)phenyl)propanamido)propyl)piperidin-1-yl)nicotinamide], the EC50 in assay [1] came to 567 nM; in assay [2] it was 11100 nM. Moreover, the Emax turned out to be 53% in assay [1] and 34% in assay [2].
For `CN(C)C(=O)c1ccc(N2CCC(CCCN(C)C(=O)[C@](O)(c3cccc(OC(F)(F)F)c3)C(F)(F)F)CC2)nc1Cl` [Example 1-40, (R)-2-chloro-N,N-dimethyl-6-(4-(3-(3,3,3-trifluoro-2-hydroxy-N-methyl-2-(3-(trifluoromethoxy)phenyl)propanamido)propyl)piperidin-1-yl)nicotinamide], in assay [1], the midpoint of the response, the EC50, lay at 52 nM and the Emax is 63%. Further, in assay [2], the “LXR alpha IP (nM)” value is “No IP” and the Emax stood at 0%.
Take `CN(C)C(=O)c1ccc(N2CCC(CCCN(C)C(=O)[C@](O)(c3cccc(OC4CC4)c3)C(F)(F)F)CC2)nc1Cl` [Example 1-41, (R)-2-chloro-6-(4-(3-(2-(3-cyclopropoxyphenyl)-3,3,3-trifluoro-2-hydroxy-N-methylpropanamido)propyl)piperidin-1-yl)-N,N-dimethylnicotinamide]: in assay [1], a half-maximal effect (EC50) was put at 105 nM and the Emax is 44%. Moreover, in assay [2], the “LXR alpha IP (nM)” value is listed as “No IP” and the Emax is 0%.
Turning to `CN(C)C(=O)c1ccc(N2CCC(CCCN(C)C(=O)C3(c4ccccc4)CCCC3)CC2)nc1Cl` [Example 1-42, 2-chloro-N,N-dimethyl-6-(4-(3-(N-methyl-1-phenylcyclopentanecarboxamido)pro-pyl)piperidin-1-yl)nicotinamide], in assay [1], it took 92 nM to reach a half-maximal effect (EC50) and the Emax was found to be 64%. In addition, in assay [2], the “LXR alpha IP (nM)” value is recorded as “No IP” and the Emax is 11%.
Regarding `CN(C)C(=O)c1ccc(N2CCC(CCCN(C)C(=O)C3(c4ccccc4)CCC3)CC2)nc1Cl` [Example 1-43, 2-chloro-N,N-dimethyl-6-(4-(3-(N-methyl-1-phenyl-cyclobutanecarboxamido)propyl)piperidin-1-yl)nicotinamide], in assay [1], the response was half-maximal at 110 nM (EC50) and the Emax came to 54%. In assay [2], the “LXR alpha IP (nM)” value was “No IP” and the Emax stood at 11%.
Consider `COc1cccc(C2(C(=O)N(C)CCCC3CCN(c4ccc(C(=O)N(C)C)c(Cl)n4)CC3)CCOCC2)c1` [Example 1-44, 2-chloro-6-(4-(3-(4-(3-methoxyphenyl)-N-methyltetrahydro-2H-pyran-4-carboxamido)propyl)piperidin-1-yl)-N,N-dimethylnicotinamide], for which, in assay [1], a half-maximal response (EC50) required 822 nM and the Emax was determined as 39%. Moreover, in assay [2], the “LXR alpha IP (nM)” value is “No IP” and the Emax was determined as 0%.
`CN(C)C(=O)c1ccc(N2CCC(CCCN(C)C(=O)C(O)(c3cccc(O)c3)C(F)(F)F)CC2)nc1Cl` (stereo not drawn) [Example 1-45, 2-chloro-N,N-dimethyl-6-(4-(3-(3,3,3-trifluoro-2-hydroxy-2-(3-hydroxyphenyl)-N-methylpropanamido)propyl)piperidin-1-yl)nicotinamide]: in assay [1], the EC50 was found to be 45 nM and the Emax was 82%. Besides, in assay [2], the EC50 was 2510 nM and the Emax is 32%.
`COc1cccc([C@]2(C(=O)N(C)CCCC3CCN(c4ccc(C(=O)N(C)C)c(Cl)n4)CC3)CCCO2)c1` [Example 1-46, (S)-2-chloro-6-(4-(3-(2-(3-methoxyphenyl)-N-methyltetrahydrofuran-2-carboxamido)propyl)piperidin-1-yl)-N,N-dimethylnicotinamide]: in assay [1], the EC50 came out at 412 nM and the Emax was 37%. For the same compound, in assay [2], the “LXR alpha IP (nM)” value is “No IP” and the Emax stood at 0%.
Take `COc1cccc([C@@]2(C(=O)N(C)CCCC3CCN(c4ccc(C(=O)N(C)C)c(Cl)n4)CC3)CCCO2)c1` [Example 1-47, (R)-2-chloro-6-(4-(3-(2-(3-methoxyphenyl)-N-methyltetrahydrofuran-2-carboxamido)propyl)piperidin-1-yl)-N,N-dimethylnicotinamide]: in assay [1], the EC50 is 100 nM and the Emax came out at 56%. In assay [2], the “LXR alpha IP (nM)” value was “No IP” and the Emax came to 11%.
The corresponding values for `CN(C)C(=O)c1ccc(N2CCC(CCCN(C)C(=O)[C@@](O)(c3cccc(C(F)(F)F)c3)C(F)(F)F)CC2)nc1Cl` [Example 1-48, (S)-2-chloro-N,N-dimethyl-6-(4-(3-(3,3,3-trifluoro-2-hydroxy-N-methyl-2-(3-(trifluoromethyl)phenyl)pro-panamido)propyl)piperidin-1-yl)nicotinamide] are 333 nM, 43%, “No IP” and 2%.
